Reference: ChEMBL document CHEMBL5579851, “Synthesis and antifungal evaluation of novel triazole derivatives bearing a pyrazole-methoxyl moiety” (Eur J Med Chem, 2024)
In brackets after ≈: the same amount, converted by molar mass. Activity calls are given as the source filed them. The rule behind the calls is not given here.

Legend:
Candida albicans [1] = assay: Antifungal activity against Candida albicans SC5314 assessed as inhibition of hyphae formation at 0.625 ug/ml after 3 hrs by inverted microscopic analysis relative to control; assay type: functional
Saccharomyces cerevisiae [2] = assay: Antifungal activity against recombinant Saccharomyces cerevisiae Y2459 overexpressing CaErg11/CaCpr assessed as inhibition of fungal growth incubated for 48 hrs by CLSI based broth microdilution assay; assay type: functional
Candida tropicalis [3] = assay: Antifungal activity against Candida tropicalis 8915 assessed as inhibition of fungal growth incubated for 48 hrs by CLSI based broth microdilution assay; assay type: functional
Candida tropicalis [4] = assay: Potency index, ratio of fluconazole MIC to test compound MIC for antifungal activity against Candida tropicalis 8915 assessed as inhibition of fungal growth incubated for 48 hrs by CLSI based broth microdilution assay; assay type: functional
Saccharomyces cerevisiae [5] = assay: Antifungal activity against recombinant Saccharomyces cerevisiae Y2513 overexpressing ScErg11 Y140H mutant assessed as inhibition of fungal growth incubated for 48 hrs by CLSI based broth microdilution assay; assay type: functional
Nakaseomyces glabratus [6] = assay: Antifungal activity against Candida glabrata 537 assessed as inhibition of fungal growth incubated for 48 hrs by CLSI based broth microdilution assay; assay type: functional
Saccharomyces cerevisiae [7] = assay: Antifungal activity against recombinant Saccharomyces cerevisiae Y525 overexpressing CaMdr1 assessed as inhibition of fungal growth incubated for 48 hrs by CLSI based broth microdilution assay; assay type: functional
[8] = target: T1, Lanosterol 14-alpha demethylase (Candida albicans (strain SC5314 / ATCC MYA-2876) (Yeast), UniProt P10613); assay: Inhibition of CYP51 in Candida albicans SC5314 assessed as ergosterol level at 0.0625 ug/ml after 8 hrs by GC-MS analysis (reference value: 86.2 %); set-up: scale not given: the % may be the effect or the level left; details: at 0.0625 µg/mL
T1 sequence (P10613 whole entry): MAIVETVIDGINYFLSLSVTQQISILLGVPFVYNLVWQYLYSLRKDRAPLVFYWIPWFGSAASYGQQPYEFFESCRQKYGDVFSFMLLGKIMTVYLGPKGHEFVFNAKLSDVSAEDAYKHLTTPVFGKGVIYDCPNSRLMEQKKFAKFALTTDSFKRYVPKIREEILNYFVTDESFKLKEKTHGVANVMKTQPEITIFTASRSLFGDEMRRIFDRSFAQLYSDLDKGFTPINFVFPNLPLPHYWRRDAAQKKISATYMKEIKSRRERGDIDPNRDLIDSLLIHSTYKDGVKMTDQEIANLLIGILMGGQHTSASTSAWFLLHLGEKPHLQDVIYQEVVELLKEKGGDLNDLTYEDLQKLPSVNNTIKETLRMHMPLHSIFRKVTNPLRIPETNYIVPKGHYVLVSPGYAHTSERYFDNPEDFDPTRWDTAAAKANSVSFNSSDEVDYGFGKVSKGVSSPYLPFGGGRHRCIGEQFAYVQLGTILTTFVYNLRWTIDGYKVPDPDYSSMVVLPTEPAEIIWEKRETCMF

Saccharomyces cerevisiae [9] = assay: Antifungal activity against recombinant Saccharomyces cerevisiae Y2766 overexpressing CauCdr1 assessed as inhibition of fungal growth incubated for 48 hrs by CLSI based broth microdilution assay; assay type: functional
Candida albicans [10] = assay: Antifungal activity against Candida albicans SC5314 assessed as inhibition of fungal growth incubated for 48 hrs by CLSI based broth microdilution assay; assay type: functional
[11] = target: T1, Lanosterol 14-alpha demethylase; assay: Inhibition of CYP51 in Candida albicans SC5314 assessed as eburicol level at 0.0625 ug/ml after 8 hrs by GC-MS analysis relative to control; set-up: scale not given: the % may be the effect or the level left; details: at 0.0625 µg/mL
Saccharomyces cerevisiae [12] = assay: Antifungal activity against recombinant Saccharomyces cerevisiae Y2716 overexpressing CpErg11 Y132F mutant/ CpCpr assessed as inhibition of fungal growth incubated for 48 hrs by CLSI based broth microdilution assay; assay type: functional
Saccharomyces cerevisiae [13] = assay: Antifungal activity against recombinant Saccharomyces cerevisiae Y2767 overexpressing CauErg11 assessed as inhibition of fungal growth incubated for 48 hrs by CLSI based broth microdilution assay; assay type: functional
Candida albicans [14] = assay: Antifungal activity against Candida albicans SC5314 assessed as inhibition of fungal growth at 0.125 ug/ml after 48 hrs by TECAN plate reader analysis relative to control; assay type: functional
[15] = target: T1, Lanosterol 14-alpha demethylase; assay: Inhibition of CYP51 in Candida albicans SC5314 assessed as obtusifoliol level at 0.0625 ug/ml after 8 hrs by GC-MS analysis relative to control; set-up: scale not given: the % may be the effect or the level left; details: at 0.0625 µg/mL
Saccharomyces cerevisiae [16] = assay: Antifungal activity against recombinant Saccharomyces cerevisiae Y2711 overexpressing CnErg11 assessed as inhibition of fungal growth incubated for 48 hrs by CLSI based broth microdilution assay; assay type: functional
[Candida] auris [17] = Antifungal activity against fluconazole-resistant Candida auris 891 assessed as inhibition of fungal growth incubated for 48 hrs by CLSI based broth microdilution assay; assay type: functional; details: Candidozyma auris
Cryptococcus neoformans = assay: Antifungal activity against Cryptococcus neoformans 32609 assessed as inhibition of fungal growth incubated for 72 hrs by CLSI based broth microdilution assay; assay type: functional
Candida albicans [18] = assay: Antifungal activity against Candida albicans 10231 assessed as inhibition of fungal growth incubated for 48 hrs by CLSI based broth microdilution assay; assay type: functional
[19] = target: T1, Lanosterol 14-alpha demethylase; assay: Inhibition of CYP51 in Candida albicans SC5314 assessed as 14alpha-methylfecosterol level at 0.0625 ug/ml after 8 hrs by GC-MS analysis relative to control; set-up: scale not given: the % may be the effect or the level left; details: at 0.0625 µg/mL
Saccharomyces cerevisiae [20] = assay: Antifungal activity against recombinant Saccharomyces cerevisiae Y2374 overexpressing CgErg11 assessed as inhibition of fungal growth incubated for 48 hrs by CLSI based broth microdilution assay; assay type: functional
Candida albicans [21] = assay: Antibiofilm activity against Candida albicans SC5314 assessed as increase in matured biofilm distruption at 64 ug/ml incubated for 24 hrs by XTT assay relative to control; assay type: functional; details: dose 64 µg/ml
Pichia kudriavzevii = assay: Antifungal activity against Candida krusei 4996 assessed as inhibition of fungal growth incubated for 48 hrs by CLSI based broth microdilution assay; assay type: functional
Candida albicans [22] = assay: Antifungal activity against fluconazole-resistant Candida albicans 904 assessed as inhibition of fungal growth incubated for 48 hrs by CLSI based broth microdilution assay; assay type: functional
Saccharomyces cerevisiae [23] = assay: Antifungal activity against recombinant Saccharomyces cerevisiae Y2301 overexpressing ScErg11 Y140F mutant assessed as inhibition of fungal growth incubated for 48 hrs by CLSI based broth microdilution assay; assay type: functional
Saccharomyces cerevisiae [24] = assay: Antifungal activity against recombinant Saccharomyces cerevisiae Y2462 overexpressing ScErg11/ScNcp1 assessed as inhibition of fungal growth incubated for 48 hrs by CLSI based broth microdilution assay; assay type: functional
Saccharomyces cerevisiae [25] = assay: Antifungal activity against recombinant Saccharomyces cerevisiae Y2769 overexpressing CauErg11 K143R mutant assessed as inhibition of fungal growth incubated for 48 hrs by CLSI based broth microdilution assay; assay type: functional
Saccharomyces cerevisiae [26] = assay: Selectivity index, ratio of MIC for antifungal activity against recombinant Saccharomyces cerevisiae Y525 overexpressing CaMdr1 to MIC for antifungal activity against recombinant Saccharomyces cerevisiae Y2411 overexpressing ScErg11; assay type: functional
Saccharomyces cerevisiae [27] = assay: Antifungal activity against recombinant Saccharomyces cerevisiae Y570 overexpressing CaCdr1 assessed as inhibition of fungal growth incubated for 48 hrs by CLSI based broth microdilution assay; assay type: functional
Candida albicans [28] = assay: Antifungal activity against fluconazole-resistant Candida albicans 901 assessed as inhibition of fungal growth incubated for 48 hrs by CLSI based broth microdilution assay; assay type: functional
[29] = Cytotoxicity against HUVEC cells assessed as cell viability at 128 ug/ml incubated for 24 hrs by CCK-8 assay relative to control; assay type: toxicity, cell-based; details: human, at 128 µg/mL, read-out: Activity
[30] = target: T1, Lanosterol 14-alpha demethylase; assay: Inhibition of CYP51 in Candida albicans SC5314 assessed as lanosterol level at 0.0625 ug/ml after 8 hrs by GC-MS analysis (reference value: 5.9 %); set-up: scale not given: the % may be the effect or the level left; details: at 0.0625 µg/mL
Candida albicans [31] = assay: Antifungal activity against Candida albicans SC5314 assessed as inhibition of hyphae length after 3 hrs by inverted microscopic analysis; assay type: functional, organism-based; details: dose 0.0625-1 µg/ml
Saccharomyces cerevisiae [32] = assay: Antifungal activity against recombinant Saccharomyces cerevisiae Y2765 overexpressing CauMdr1 assessed as inhibition of fungal growth incubated for 48 hrs by CLSI based broth microdilution assay; assay type: functional
Saccharomyces cerevisiae [33] = assay: Antifungal activity against recombinant Saccharomyces cerevisiae Y2768 overexpressing CauErg11 T132F mutant assessed as inhibition of fungal growth incubated for 48 hrs by CLSI based broth microdilution assay; assay type: functional
Saccharomyces cerevisiae [34] = assay: Antifungal activity against recombinant Saccharomyces cerevisiae Y2300 overexpressing ScErg11 assessed as inhibition of fungal growth incubated for 48 hrs by CLSI based broth microdilution assay; assay type: functional
Saccharomyces cerevisiae [35] = assay: Antifungal activity against recombinant Saccharomyces cerevisiae Y2411 overexpressing ScErg11 assessed as inhibition of fungal growth incubated for 48 hrs by CLSI based broth microdilution assay; assay type: functional
Saccharomyces cerevisiae [36] = assay: Antifungal activity against recombinant Saccharomyces cerevisiae Y2721 overexpressing CpErg11/CpCpr assessed as inhibition of fungal growth incubated for 48 hrs by CLSI based broth microdilution assay; assay type: functional
Candida tropicalis [37] = assay: Potency index, ratio of ravuconazole MIC to test compound MIC for antifungal activity against Candida tropicalis 8915 assessed as inhibition of fungal growth incubated for 48 hrs by CLSI based broth microdilution assay; assay type: functional
[Candida] auris [38] = Antifungal activity against fluconazole-resistant Candida auris 919 assessed as inhibition of fungal growth incubated for 48 hrs by CLSI based broth microdilution assay; assay type: functional; details: Candidozyma auris
[Candida] auris [39] = Antifungal activity against fluconazole-resistant Candida auris 918 assessed as inhibition of fungal growth incubated for 48 hrs by CLSI based broth microdilution assay; assay type: functional; details: Candidozyma auris
Candida albicans [40] = assay: Antibiofilm activity against Candida albicans SC5314 assessed as increase in matured biofilm distruption incubated for 24 hrs by XTT assay; assay type: functional, organism-based; details: dose 0.25-64 µg/ml
Nakaseomyces glabratus [41] = assay: Antifungal activity against Candida glabrata 537 assessed as inhibition of fungal growth at 2 ug/ml measured up to 48 hrs by TECAN plate reader analysis; assay type: functional, organism-based; details: dose 2.0 µg/ml
Candida parapsilosis [42] = assay: Antifungal activity against Candida parapsilosis 22019 assessed as inhibition of fungal growth at 0.125 ug/ml measured up to 48 hrs by TECAN plate reader analysis; assay type: functional, organism-based; details: dose 0.125 µg/ml
Candida albicans [43] = assay: Antibiofilm activity against Candida albicans SC5314 assessed as inhibition of biofilm formation at 64 ug/mL incubated for 24 hrs by XTT assay relative to control; assay type: functional
Candida parapsilosis [44] = assay: Antifungal activity against Candida parapsilosis 22019 assessed as inhibition of fungal growth incubated for 48 hrs by CLSI based broth microdilution assay; assay type: functional; details: Lodderomyces parapsilosis

C[C@@H](OCc1ccn(Cc2ccc(F)cc2)n1)[C@](O)(Cn1cncn1)c1ccc(F)cc1F
inhibition at 0.625 µg/mL (Candida albicans [1]): 100% | MIC (Saccharomyces cerevisiae [2]): 0.0313 µg/mL | MIC (Candida tropicalis [3]): 0.25 µg/mL (≈ 0.547 µM) | Ratio (Candida tropicalis [4]): 256 | MIC (Saccharomyces cerevisiae [5]): 0.016 µg/mL | MIC (Nakaseomyces glabratus [6]): ≤ 0.125 µg/mL | MIC (Saccharomyces cerevisiae [7]): 0.25 µg/mL | Activity [8]: 1.4% | MIC (Saccharomyces cerevisiae [9]): 4 µg/mL | MIC (Candida albicans [10]): ≤ 0.125 µg/mL | Activity [11]: ~ 20% | MIC (Saccharomyces cerevisiae [12]): 0.125 µg/mL | MIC (Saccharomyces cerevisiae [13]): 0.0313 µg/mL | inhibition at 0.125 µg/mL (Candida albicans [14]): 100% | Activity [15]: ~ 20% | MIC (Saccharomyces cerevisiae [16]): 8 ng/mL | MIC ([Candida] auris [17]): 16 µg/mL (≈ 35 µM) | MIC (Cryptococcus neoformans): 0.25 µg/mL (≈ 0.547 µM) | MIC (Candida albicans [18]): ≤ 0.125 µg/mL | Activity [19]: ~ 20% | MIC (Saccharomyces cerevisiae [20]): 0.0313 µg/mL | Activity (Candida albicans [21]): 49.2% | MIC (Pichia kudriavzevii): 4 µg/mL (≈ 8.74 µM) | MIC (Candida albicans [22]): 8 µg/mL (≈ 17.5 µM) | MIC (Saccharomyces cerevisiae [23]): 0.0313 µg/mL | MIC (Saccharomyces cerevisiae [24]): 0.125 µg/mL | MIC (Saccharomyces cerevisiae [25]): 0.063 µg/mL | Ratio (Saccharomyces cerevisiae [26]): 16 | MIC (Saccharomyces cerevisiae [27]): 32 µg/mL | MIC (Candida albicans [28]): 2 µg/mL (≈ 4.37 µM) | viability at 24 h, 128 ug/ml [29]: 75.8% | Activity [30]: > 25% | inhibition (Candida albicans [31]): Dose-Dependent Effect | MIC (Saccharomyces cerevisiae [32]): 0.25 µg/mL | MIC (Saccharomyces cerevisiae [33]): 0.063 µg/mL | MIC (Saccharomyces cerevisiae [34]): 0.063 µg/mL | MIC (Saccharomyces cerevisiae [35]): 0.016 µg/mL | MIC (Saccharomyces cerevisiae [36]): 0.0313 µg/mL | Ratio (Candida tropicalis [37]): 32 | MIC ([Candida] auris [38]): 16 µg/mL (≈ 35 µM) | MIC ([Candida] auris [39]): 16 µg/mL (≈ 35 µM) | Activity (Candida albicans [40]): Dose-Dependent Effect | inhibition (Nakaseomyces glabratus [41]): inactive | inhibition (Candida parapsilosis [42]): Active | inhibition at 64 µg/mL (Candida albicans [43]): > 55% | MIC (Candida parapsilosis [44]): 0.25 µg/mL (≈ 0.547 µM)

C[C@@H]1[C@H](O)[C@@H](C)/C=C/C=C/C=C/C=C/C=C/C=C/C=C/[C@H](O[C@@H]2O[C@H](C)[C@@H](O)[C@H](N)[C@@H]2O)C[C@@H]2O[C@](O)(C[C@@H](O)C[C@@H](O)[C@H](O)CC[C@@H](O)C[C@@H](O)CC(=O)O[C@H]1C)C[C@H](O)[C@H]2C(=O)O [AMPHOTERICIN B]
viability at 24 h, 128 ug/ml [29]: 30.5%

C[C@@H](c1ncncc1F)[C@](O)(Cn1cncn1)c1ccc(F)cc1F [VORICONAZOLE]
MIC (Saccharomyces cerevisiae [2]): 0.016 µg/mL | MIC (Saccharomyces cerevisiae [5]): 0.0313 µg/mL | MIC (Saccharomyces cerevisiae [7]): 0.5 µg/mL | MIC (Saccharomyces cerevisiae [9]): 2 µg/mL | MIC (Saccharomyces cerevisiae [12]): 0.25 µg/mL | MIC (Saccharomyces cerevisiae [13]): 0.0313 µg/mL | MIC (Saccharomyces cerevisiae [16]): 8 ng/mL | MIC (Saccharomyces cerevisiae [20]): 0.0313 µg/mL | MIC (Saccharomyces cerevisiae [23]): 0.0313 µg/mL | MIC (Saccharomyces cerevisiae [24]): 0.063 µg/mL | MIC (Saccharomyces cerevisiae [25]): 0.063 µg/mL | MIC (Saccharomyces cerevisiae [27]): 8 µg/mL | MIC (Saccharomyces cerevisiae [32]): 1 µg/mL | MIC (Saccharomyces cerevisiae [33]): 0.25 µg/mL | MIC (Saccharomyces cerevisiae [34]): 0.0313 µg/mL | MIC (Saccharomyces cerevisiae [35]): 0.008 µg/mL | MIC (Saccharomyces cerevisiae [36]): 0.0313 µg/mL
